In patent US20230158025A1 (UNIVERSITY OF UTAH RESEARCH FOUNDATION, priority 2020, published 2023):
Where two headings read alike, the source gives them in different places.

Legend:
[1] = target: recombinant human GALK1 (Homo sapiens, UniProt P51570); assay: hGALK1 biochemical activity assay (Kinase-Glo Plus, ATP depletion)
Outline: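 Recombinant human or mouse GALK1 (5 nM, with 100 μM galactose, in the added enzyme solution) was run with ATP (35 μM in the substrate solution) in HEPES pH 8.0 buffer. Compounds were tested at 11 1/3-step concentrations from 57.4 μM to 0.97 nM. After 1 h at room temperature, remaining ATP was read by Kinase-Glo Plus luminescence.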

[2] = target: recombinant mouse GALK1 (Mus musculus, UniProt Q9R0N0); assay: mGALK1 biochemical activity assay (Kinase-Glo Plus, ATP depletion)
Outline: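 Recombinant GALK1 (5 nM) with 100 μM galactose; GALK1 turnover read as ATP depletion by Kinase-Glo Plus luminescence. Reaction ran 1 h at room temperature before detection reagent was added.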

[3] = PAMPA permeability
[4] = aqueous kinetic solubility
[5] = rat microsomal stability (RLM)
[6] = recombinant human GALK1, Kinase-Glo Plus ATP depletion, read-out: hGALK
[7] = recombinant mouse GALK1, Kinase-Glo Plus ATP depletion, read-out: mGALK
[8] = recombinant human GALK1, Kinase-Glo Plus ATP depletion, bracketed figure in the cell, e.g. (−1.2), is not defined in the text shown, read-out: hGALK
[9] = recombinant mouse GALK1, Kinase-Glo Plus ATP depletion, bracketed figure in the cell, e.g. (−1.2), is not defined in the text shown, read-out: mGALK
[10] = microsomal stability half-life, minutes

Sequence of recombinant human GALK1 (P51570 whole entry): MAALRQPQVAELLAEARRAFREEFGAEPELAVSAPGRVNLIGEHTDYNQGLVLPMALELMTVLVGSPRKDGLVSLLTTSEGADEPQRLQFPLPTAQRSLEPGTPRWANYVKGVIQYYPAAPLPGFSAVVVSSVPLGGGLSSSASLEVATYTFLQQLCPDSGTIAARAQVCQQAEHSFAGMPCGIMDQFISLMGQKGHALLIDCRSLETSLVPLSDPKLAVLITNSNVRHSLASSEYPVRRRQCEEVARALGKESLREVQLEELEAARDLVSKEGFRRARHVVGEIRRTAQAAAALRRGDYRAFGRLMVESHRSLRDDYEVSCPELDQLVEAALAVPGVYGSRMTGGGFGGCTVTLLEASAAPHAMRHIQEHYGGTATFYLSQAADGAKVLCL
Sequence of recombinant mouse GALK1 (Q9R0N0 whole entry): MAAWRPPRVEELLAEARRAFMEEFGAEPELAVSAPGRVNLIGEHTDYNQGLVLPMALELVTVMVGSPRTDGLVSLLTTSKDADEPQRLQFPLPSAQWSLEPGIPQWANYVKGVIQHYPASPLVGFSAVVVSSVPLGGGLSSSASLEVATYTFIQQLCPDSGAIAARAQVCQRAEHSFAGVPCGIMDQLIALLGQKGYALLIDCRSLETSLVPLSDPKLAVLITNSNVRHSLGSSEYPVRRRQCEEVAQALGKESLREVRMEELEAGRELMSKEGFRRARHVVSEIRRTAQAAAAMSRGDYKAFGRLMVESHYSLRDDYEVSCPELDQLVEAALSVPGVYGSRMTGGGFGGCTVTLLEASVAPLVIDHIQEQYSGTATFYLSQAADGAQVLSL

IC50 ([1]; Tables 2-15, 35 μM ATP, 100 μM galactose, 1 h, bracketed figure after some values (e.g. −1.2) is undefined and not reported, read-out: hGALK IC50) [µM]	IC50 [1, 6] [µM]	IC50 ([2]; Tables 2-15, 35 μM ATP, 100 μM galactose, 1 h, bracketed figure after some values is undefined and not reported, read-out: mGALK IC50) [µM]	IC50 [2, 7] [µM]	Perm. (1 × 10^−6 cm/sec) ([3]; PAMPA)	Sol. ([4]; aqueous kinetic solubility) [µg/mL]	Metab. Stabil. (m) ([5]; microsomal stability half-life)	IC50 [1, 8] [µM]	IC50 [2, 9] [µM]	Metab. Stabil. (m) [5, 10] [m]	Perm. (1 × 10^−6 cm/sec) [3]	Sol. [4] [µg/mL]	Metab. Stabil. (m) ([5]; microsomal half-life)	Structure (SMILES)
0.49	0.49	3.43	3.43	460.2 1 × 10^−6 cm/sec	<1	2.993	–	–	–	–	–	–	CC1=C(C(=O)NCc2cnn(C)c2C)C(c2ccc(C)cc2Cl)N=C(Nc2nc3ccc(F)cc3o2)N1 (stereo not shown) [Compound 124]
–	–	–	–	417.5 1 × 10^−6 cm/sec	3.5	–	8.63	24.3	>30	–	–	–	CC1=C(C(=O)Nc2nncs2)C2(CCSCC2)N=C(Nc2nc3ccccc3o2)N1 [Compound 271, 2-(benzo[d]oxazol-2-ylamino)-4-methyl-N-(1,3,4-thiadiazol-2-yl)-9-thia-1,3-diazaspiro[5.5]undeca-1,4-diene-5-carboxamide]
–	–	–	–	<9.8 1 × 10^−6 cm/sec	61.78	–	12.2	12.2	>30	–	–	–	CN(C)CCNC(=O)C1CC(=O)C2=C(C1)NC(Nc1nc3ccccc3o1)=NC2c1ccccc1Cl (stereo not shown) [Compound 284, 2-(benzo[d]oxazol-2-ylamino)-4-(2-chlorophenyl)-N-(2-(dimethylamino)ethyl)-5-oxo-1,4,5,6,7,8-hexahydroquinazoline-7-carboxamide]
–	–	–	–	19.8 1 × 10^−6 cm/sec	<1	–	13.7	17.2	>30	–	–	–	COc1ccc(Cl)c(C2N=C(Nc3nc4ccccc4o3)NC(C)=C2C(=O)Nc2nncs2)c1 (stereo not shown) [Compound 269, 2-(benzo[d]oxazol-2-ylamino)-4-(2-chloro-5-methoxyphenyl)-6-methyl-N-(1,3,4-thiadiazol-2-yl)-1,4-dihydropyrimidine-5-carboxamide]
–	–	–	–	1044.0 1 × 10^−6 cm/sec	6.4	–	3.43	19.3	>30	–	–	–	CC1=C(C(=O)Nc2nncs2)C(c2nn(C)cc2Br)N=C(Nc2nc3ccccc3o2)N1 (stereo not shown) [Compound 265, 2-(benzo[d]oxazol-2-ylamino)-4-(4-bromo-1-methyl-1H-pyrazol-3-yl)-6-methyl-N-(1,3,4-thiadiazol-2-yl)-1,4-dihydropyrimidine-5-carboxamide]
–	1.54	–	19.3	–	–	–	–	–	–	29.6 1 × 10^−6 cm/sec	54.0	>30	CC1=C(C(=O)Nc2cc(C(=O)O)ccc2Cl)C(c2ccccc2Cl)N=C(Nc2nc3ccc(F)cc3o2)N1 (stereo not shown) [Compound 29, 4-chloro-3-(4-(2-chlorophenyl)-2-((6-fluorobenzo[d]oxazol-2-yl)amino)-6-methyl-1,4-dihydropyrimidine-5-carboxamido)benzoic acid]
–	5.44	–	19.3	–	–	–	–	–	–	<1.5 1 × 10^−6 cm/sec	<1	>30	CC1=C(C(=O)Nc2nnc(-c3cccnc3)s2)C(c2ccccc2Cl)N=C(Nc2nc3cc(F)ccc3o2)N1 (stereo not shown) [Compound 97, 4-(2-chlorophenyl)-2-((5-fluorobenzo[d]oxazol-2-yl)amino)-6-methyl-N-(5-(pyridin-3-yl)-1,3,4-thiadiazol-2-yl)-1,4-dihydropyrimidine-5-carboxamide]
